According to patent US8822146B2, “Derivatization of biomolecules by covalent coupling of non-cofactor compounds using methyltransferases” (Vilnius University, priority 2009, dated 2014):

Tests used:
M.Hhal = M.Hhal (Haemophilus parahaemolyticus, UniProt P05102); experiment: DNA protection assay: pUC-618 fragment modified with aldehyde in the presence of M.Hhal, then R.Hin6I cleavage; type: biochemical; settings: 800 mM acetaldehyde, 50 nM M.Hhal, 100 nM pUC-618, 1 hour, room temperature
Protocol: A 618 bp fragment of plasmid […] (pUC-618), which contains a single target site for M.Hhal, was used as a DNA substrate. pUC-618 was prepared by PCR amplification of the pUC19 template (Fermentas Life Sciences) using Dir (5′-[…]) (SEQ ID No:11) and Rev (5′-[…]) (SEQ ID No:12) primers and Taq DNA Polymerase (Fermentas Life Sciences). The PCR fragment was purified by Sephacryl S-400 (GE Healthcare) following the precipitation by ethanol. pUC-618 contains a single target site for M.Hhal.

M.Sssl = M.Sssl (Spiroplasma monobiae, UniProt P15840); settings: 13 mM formaldehyde, 500 nM M.Sssl, 100 nM pUC-618, 1 hour, room temperature
M.Sssl, sequence (P15840 whole entry): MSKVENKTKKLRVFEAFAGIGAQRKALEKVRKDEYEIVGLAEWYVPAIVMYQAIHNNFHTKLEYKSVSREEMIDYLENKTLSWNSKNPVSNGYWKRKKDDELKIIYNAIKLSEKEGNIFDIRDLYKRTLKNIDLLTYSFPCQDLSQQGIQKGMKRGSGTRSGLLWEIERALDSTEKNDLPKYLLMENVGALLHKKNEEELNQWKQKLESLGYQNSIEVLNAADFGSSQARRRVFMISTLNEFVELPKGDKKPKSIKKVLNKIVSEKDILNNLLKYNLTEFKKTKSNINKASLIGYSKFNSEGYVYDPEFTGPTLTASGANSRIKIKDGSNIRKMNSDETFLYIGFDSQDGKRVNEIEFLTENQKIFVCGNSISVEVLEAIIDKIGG

M.Hpall = M.Hpall (Haemophilus parainfluenzae, UniProt P15446); settings: 13 mM formaldehyde, 1000 nM M.Hpall, 100 nM pUC-618, 1 hour, room temperature
M.Hpall, sequence (P15446 whole entry): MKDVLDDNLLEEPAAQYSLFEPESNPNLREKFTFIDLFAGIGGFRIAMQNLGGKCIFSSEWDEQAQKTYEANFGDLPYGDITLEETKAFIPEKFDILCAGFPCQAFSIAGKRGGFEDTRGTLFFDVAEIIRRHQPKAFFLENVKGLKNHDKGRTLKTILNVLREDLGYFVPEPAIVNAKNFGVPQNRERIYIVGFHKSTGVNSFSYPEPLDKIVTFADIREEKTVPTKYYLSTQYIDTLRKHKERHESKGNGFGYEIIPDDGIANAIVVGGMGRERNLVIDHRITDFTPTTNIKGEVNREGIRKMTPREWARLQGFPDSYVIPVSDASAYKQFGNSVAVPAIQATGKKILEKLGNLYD

M.Hhal, sequence (P05102 whole entry, the tested form may be a part): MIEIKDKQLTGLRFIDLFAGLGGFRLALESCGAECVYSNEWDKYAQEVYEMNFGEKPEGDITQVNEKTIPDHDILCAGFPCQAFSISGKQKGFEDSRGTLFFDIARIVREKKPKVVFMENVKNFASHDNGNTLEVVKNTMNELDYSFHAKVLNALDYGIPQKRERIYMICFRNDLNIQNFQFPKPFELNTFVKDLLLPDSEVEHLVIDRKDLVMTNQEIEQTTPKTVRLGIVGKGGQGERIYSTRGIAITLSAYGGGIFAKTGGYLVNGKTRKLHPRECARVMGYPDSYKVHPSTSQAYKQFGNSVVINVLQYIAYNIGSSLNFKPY

| Structure (SMILES) | resistance of the GCGC site to R.Hin6I cleavage (M.Hhal) | resistance of the GCGC site to cleavage with R.Hin6I (M.Sssl) [%] | resistance of the CCGG sites to cleavage with R.Hpall (M.Hpall) [%] |
| --- | --- | --- | --- |
| CC=O [acetaldehyde] | nearly fully |  |  |
| C=O [formaldehyde] |  | 70 | 70 |
